Laboratory results: US7473708B2, “Agents with leukotriene B4-like antiviral (enveloped RNA) activities” (priority 1996, dated 2009)
“Also recorded” adds a separate entry of the source.

Experiments:
HSV-1 = assay: Synthesis of HSV-1 particles in Vero cells; settings: concentration not stated (summary)
HIV (93US151) = assay: HIV infection in vivo, SCID mice reconstituted with human PBMC
[1] = tested on: influenza virus (strain A/Pr/8/34); assay: Influenza infection in lungs of mice; format: in vivo; settings: LTB4 1, 10 and 100 ng/dose intranasal, days 1 to 5, day 6
Protocol: BALB/c mice (6-8 week old) were infected (n=6/group) by delivering 10 PFU of influenza virus (strain A/Pr/8/34) in the nasal cavity. On days 1 to 5 post-infection, mice were treated intranasally with a placebo or with varying doses of LTB4 (1, 10 and 100 ng/dose). On the 6th day post-infection, all mice were sacrificed and influenza viral loads in lungs were determined using the MDCK cell line.

HSV-1 strain E-377 = assay: HSV-1 infection in vivo, hairless mice
HIV-1 strain 89.6 = assay: HIV ex vivo model, human tonsillar tissue, p24 release; format: cell-based; settings: tonsil blocks, LTB4 0.01, 0.1 and 1 μM
Source text: An ex vivo model that retains the cellular organization found in normal human lymphoid tissue was used. The selected lymphoid tissues were tonsils. […] Such an ex vivo model is used to study HIV pathogenesis and potency of antiviral agents such as AZT (Zidovudine) by many laboratories.
Human tonsillar tissues from two different individuals were removed during routine tonsillectomy and were received within five hours of excision. The tonsils were washed thoroughly with medium supplemented with antibiotics and then sectioned into 2-3 mm blocks. These tissue blocks were placed in culture medium at the air-liquid interface on the top surface of collagen sponge gels and were pretreated for 10 min with the indicated concentrations of LTB4 (0.01, 0.1 and 1 μM). Next, HIV-1 particles (400 TCID50 of HIV-1 strain 89.6) were applied at the top of each tissue block. The next day, the culture medium was completely removed and replaced with fresh medium supplemented with a final concentration of LTB4 (0.01, 0.1 and 1 μM). This step is necessary in order to remove unadsorbed and uninternalized virus particles. Productive HIV-1 infection was assessed every 3 to 4 days by measuring p24 in the culture medium using a viral core p24 antigen enzyme-linked immunosorbent assay. […]

[2] = tested on: murine CMV (Smith strain); assay: CMV viral load in infected mice (plaque assay)
Protocol: Six week old BALB/c mice were infected by intravenous injection with 10^4 plaque forming units (PFU) of murine CMV (Smith strain). Mice were divided into two groups: the first group received a placebo while the second group was treated with 25 ng of LTB4, administered intravenously once a day starting on the day of infection. After 12 days of treatment, mice were sacrificed and the lungs and salivary glands harvested. The organs were homogenized, in 0.5 ml of culture medium, to liberate intracellular viral particles. After centrifugation, the cell free supernatants were tested for the presence of CMV particles by standard plaque assay technique. Briefly, serially diluted supernatants were added to a monolayer of mouse embryonic fibroblast cells (highly susceptible to CMV infection) for 1 hour at 37° C. after which the nonadsorbed virus were removed and the monolayer overlaid with 1.5% methylcellulose. After a 5-day incubation, the monolayers were fixed with formaldehyde and stained with violet crystal. The number of plaques, which represents areas of infection equivalent to one viral particle, were counted and the CMV titers in the lungs and salivary glands determined.

[3] = tested on: coronavirus strain HCoV-OC43; assay: Human coronavirus infection in lungs of mice; format: in vivo; settings: for coronavirus viral load in lungs, per mouse: day 6
Protocol: The antiviral effect of LTB4 in controlling pneumonia caused by coronavirus was evaluated in an in vivo model using C57BL/6 mice (8 day old). Mice were infected (n=6/group) intranasally with 10 μl of coronavirus suspension (10^4 PFU, strain HCoV-OC43). Twenty-four hours post-infection, mice were treated intranasally with a placebo or with varying doses of LTB4 (5 ng/dose or 50 ng/dose). Mice were treated once a day during 5 days, and were sacrificed and autopsied on day 6. Lungs of mice were surgically removed and the viral load was titrated on HRT-18 cell line.

EBV = assay: Detection of Epstein-Barr Nuclear Antigen (EBNA) in EBV-infected PBMC (ACIF test); format: cell-based, human; settings: 100 nM LTB4, added days 0, 3, 6, 9; ten days of culture
Protocol: After ten days of culture, cells were harvested for determination of the presence of Epstein-Barr Nuclear Antigen (EBNA), a consequence of EBV infection. Preparation of cell smears, fixation and detection of EBNA by the anti-complement immunofluorescence (ACIF) test were carried out as described by Reedman B. M. and Klein G. (Int. J. Cancer, 1973, 11:499). Smears were prepared by spreading 50 μl of a concentrated suspension of washed cells (2×10^6/ml) on clean slides, air dried and fixed in cold acetone (−20° C.) during 10 minutes. Human serum (50 μl) from EBV seropositive donor was used as a source of complement. Slides were incubated at room temperature in a humid chamber during 45 minutes. Slides were then washed three times in phosphate buffer saline (PBS) and stained with 50 μl of fluorescein-5-isothiocyanate (FITC “Isomer I”)-conjugated goat IgG fraction anti-human complement C3 (Cappel Research Products, Durham, N.C.) during 60 minutes at room temperature in a humid chamber. Slides were washed in PBS (3 times), mounted in PBS:glycerol 1:1 and examined. Raji and U937 cells were used as positive and negative controls, respectively. The percentage of EBNA-positive cells was decreased by more than 55% with 30 nM LTB4, and by more than 70% with 100 nM LTB4 (FIG. 2). The results illustrated in FIG. 2 are representative of six (6) other experiments.
(§1) PBMC were infected with EBV and HSV-1 and treated or not with 100 nM of analogs of LTB4 such as 20-OH-LTB4, LTA3 methyl ester, 12(R)-HETE and 5(S), 15(S)-diHETE. After six days of culture, the presence of EBNA antigen (a consequence of EBV infection) was evaluated by the ACIF test, as described in Example I. Similarly, the presence of HSV-1 antigen in PBMC was evaluated by immunofluorescence using an antiserum obtained from a chronically infected donor as described above in section entitled “Detection of Specific HSV-1 Antigen”. […] The results illustrated in Table 1 are representative of three other experiments.

[4] = tested on: cell cultures of Examples I and II; assay: LTB4 cytotoxicity, trypan blue dye exclusion test; format: cell-based, human; settings: concentrations up to 30 nM
Protocol: In cell cultures described in Examples I and II, the cytotoxic effect of LTB4 was assessed by the trypan blue dye exclusion test at concentrations up to 30 nM. […] Cell viability was assessed by the trypan blue exclusion test; values (from 1 experiment representative of 3) represent the mean cell viability in cell cultures (n=24).

HSV-1 (strain McIntyre) = assay: Detection of specific HSV-1 antigen in HSV-1-infected PBMC (immunofluorescence); format: cell-based, human; settings: specific antiserum from a chronically infected donor
Protocol: Synthesis of the viral antigen was inhibited by 60% in the presence of 100 nM LTB4 (FIG. 4). The results illustrated in FIG. 4 are representative of five (5) other experiments.
as §1

[5] = LTB4 10 μg i.p. days 0, 1, 3, 5, 7, 9
[6] = 25 ng LTB4 i.v. once a day, 12 days

CCCCC/C=C\C[C@@H](O)/C=C/C=C/C=C\[C@@H](O)CCCC(=O)O [LTB4, 5S,12R-dihydroxy-6,8,10,14 (Z,E,E,Z)-eicosatetraenoic acid]
inhibition of formation of new HSV-1 particles (HSV-1): 75%
percentage of CD4+ T cell survival versus placebo (HIV (93US151); LTB4 1, 10 or 100 ng/mouse i.p. once a day, day 14 P.I.): significantly increased
HIV plasma viral loads versus placebo (HIV (93US151); LTB4 i.p. once a day, days 7 and 14 P.I.): reduced
influenza titers in the lungs versus placebo [1]: significantly decreased; also recorded: reduced
course of skin lesions (HSV-1 strain E-377; HSV-1-infected hairless mice, LTB4 i.p.): regressed from day 8; also recorded: smaller and disappeared more rapidly
Survival at day 14 (HSV-1 strain E-377; HSV-1-infected, LTB4 10 μg i.p.): 100%
Infection-associated symptoms score, Day 4 (HSV-1 strain E-377; [5]): 0
Infection-associated symptoms score, Day 6 (HSV-1 strain E-377; [5]): 0
Infection-associated symptoms score, Day 8 (HSV-1 strain E-377; [5]): 0
Infection-associated symptoms score, Day 10 (HSV-1 strain E-377; [5]): 0
Size of infected skin lesions, Day 4 (HSV-1 strain E-377; [5]): ≤ 0.5 cm
Size of infected skin lesions, Day 6 (HSV-1 strain E-377; [5]): 1-3 cm
Size of infected skin lesions, Day 8 (HSV-1 strain E-377; [5]): 1-3 cm
Size of infected skin lesions, Day 10 (HSV-1 strain E-377; [5]): ≤ 0.2 cm
lesions smaller than those of HSV-1-infected untreated Group 2 (HSV-1 strain E-377; lesions developed from days 0 to 4): ~80%
infection-associated symptoms and general status (HSV-1 strain E-377; throughout the experiment): posterior limb inflammation and skinniness were not observed
inhibition of the replicative cycle of HIV-1 (p24 release) (HIV-1 strain 89.6): more than 75%
reduction in the CMV viral load in the lungs versus placebo [2, 6]: 77%
reduction in the CMV viral load in the salivary glands versus placebo [2, 6]: 70%
CMV viral load versus placebo ([2]; infected mice): reduced
coronavirus viral load in lungs, per mouse ([3]; LTB4 5 ng/dose/mouse intranasal once a day 5 days): N.D. (below detection limit of 32 TCID50/lungs)
coronavirus viral load in lungs, per mouse ([3]; LTB4 50 ng/dose/mouse intranasal once a day 5 days): N.D. (below detection limit of 32 TCID50/lungs)
number of coronavirus particles in lungs versus placebo ([3]; infected mice): significantly reduces; also recorded: reduced
decrease of percentage of EBNA-positive cells (EBV): more than 70%
cytotoxic effect / cell viability [4]: no direct cytotoxic effect
inhibition of synthesis of HSV-1 antigen (HSV-1 (strain McIntyre)): 75%
